Source: PubChem BioAssay AID328 (DTP/NCI, 2004)
Several values for one entry are separate records, joined by “and”; a condition that tells them apart may be missing. Equal entries are not always repeated. Inconclusive results and toxic doses are left out.

Test system: BDF1 mice, P388 leukemia ip, median survival T/C
Assay: NCI In Vivo Anticancer Drug Screen. Data for tumor model P388 Leukemia (intraperitoneal) in B6D2F1 (BDF1) mice
Conditions: endpoint: median survival time, higher = longer survival
Summary of the method: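 Transplantable tumour in mice; compound vs vehicle dosing; survival scored; ratio of treated to control reported.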

[1] = dose: 6.25 mg/kg/injection, schedule: Q01DX009 (ip), vehicle: saline
[2] = dose: 100.0 mg/kg/injection, schedule: Q01DX009 (ip), vehicle: saline with Tween-80
[3] = dose: 200.0 mg/kg/injection, schedule: Q01DX009 (ip), vehicle: saline with Tween-80
[4] = dose: 50.0 mg/kg/injection, schedule: Q01DX009 (ip), vehicle: saline with Tween-80

O=C(Nc1cccc2ccccc12)ON1C(=O)c2ccccc2C1=O
T/C (dose: 50.0 mg/kg/injection, schedule: Q01DX005 (ip), vehicle: saline with Tween-80): 110 % of control
T/C (dose: 100.0 mg/kg/injection, schedule: Q01DX005 (ip), vehicle: saline with Tween-80): 115 % of control
T/C (dose: 200.0 mg/kg/injection, schedule: Q01DX005 (ip), vehicle: saline with Tween-80): 120 % of control

CCCCCCCCCCCCCC[N+](C)(C)CCCCCCCCCCCCCC
T/C [1]: 120 % of control
T/C (dose: 16.5 mg/kg/injection, schedule: Q01DX009 (ip), vehicle: saline): 87 % of control
T/C (dose: 17.0 mg/kg/injection, schedule: Q01DX009 (ip), vehicle: saline): 119 % of control
T/C (dose: 25.0 mg/kg/injection, schedule: Q04DX003 (ip), vehicle: saline): 118 % of control
T/C (dose: 37.0 mg/kg/injection, schedule: Q01DX009 (ip), vehicle: saline): 119 % of control
T/C (dose: 50.0 mg/kg/injection, schedule: Q04DX003 (ip), vehicle: saline): 104 % of control

NC(N)=Nc1ccc(OC(=O)c2ccc(N=C(N)N)cc2)cc1
T/C (dose: 1.56 mg/kg/injection, schedule: Q01DX009 (ip), vehicle: water): 106 % of control
T/C (dose: 3.12 mg/kg/injection, schedule: Q01DX009 (ip), vehicle: water): 94 % of control
T/C (dose: 6.25 mg/kg/injection, schedule: Q01DX009 (ip), vehicle: water): 103 % of control
T/C (dose: 12.5 mg/kg/injection, schedule: Q01DX009 (ip), vehicle: water): 110 % of control
T/C (dose: 25.0 mg/kg/injection, schedule: Q01DX009 (ip), vehicle: water): 103 % of control

CCCCc1ccc(Sc2cccc3c2C(=O)c2c(Sc4ccc(CCCC)cc4)cccc2C3=O)cc1
T/C [2]: 95 % of control
T/C [3]: 90 % of control
T/C (dose: 400.0 mg/kg/injection, schedule: Q01DX009 (ip), vehicle: saline with Tween-80): 95 % of control

Cc1ccc(-c2nc3ccccc3c(=O)n2/N=C/c2cccc3ccccc23)cc1
T/C [4]: 90 % of control
T/C [2]: 89 % of control

C[C@]12CC[C@@H]3c4ccccc4CC[C@H]3[C@@H]1CC[C@@H]2O
T/C (dose: 100.0 mg/kg/injection, schedule: Q04DX003 (ip), vehicle: saline with Tween-80): 90 % of control
T/C (dose: 200.0 mg/kg/injection, schedule: Q04DX003 (ip), vehicle: saline with Tween-80): 90 % of control
T/C (dose: 400.0 mg/kg/injection, schedule: Q04DX003 (ip), vehicle: saline with Tween-80): 100 % of control

NCCNCC[OH2+].NCCNCC[OH2+].O=S(=O)([O-])[O-].[Cu+2]
T/C [1]: 105 % of control
T/C (dose: 12.5 mg/kg/injection, schedule: Q01DX009 (ip), vehicle: saline): 108 % of control
T/C (dose: 25.0 mg/kg/injection, schedule: Q01DX009 (ip), vehicle: saline): 103 % of control

Nc1ccc(S(=O)(=O)N/N=C/c2ccccc2[N+](=O)[O-])cc1
T/C (dose: 6.25 mg/kg/injection, schedule: Q01DX009 (ip), vehicle: saline with Tween-80): 95 % of control
T/C (dose: 12.5 mg/kg/injection, schedule: Q01DX009 (ip), vehicle: saline with Tween-80): 100 % of control
T/C (dose: 25.0 mg/kg/injection, schedule: Q01DX009 (ip), vehicle: saline with Tween-80): 101 % of control

NC(=O)c1ccc[n+](Cc2c(Cl)cccc2Cl)c1
T/C (dose: 0.29 mg/kg/injection, schedule: Q01DX009 (ip), vehicle: saline): 105 % of control
T/C (dose: 0.44 mg/kg/injection, schedule: Q01DX009 (ip), vehicle: saline): 115 % of control
T/C (dose: 1.2 mg/kg/injection, schedule: Q04DX003 (ip), vehicle: saline): 122 % of control
T/C (dose: 1.25 mg/kg/injection, schedule: Q01DX009 (ip), vehicle: saline): 96 % of control
T/C (dose: 1.56 mg/kg/injection, schedule: Q01DX009 (ip), vehicle: saline): 160 % of control
T/C (dose: 2.5 mg/kg/injection, schedule: Q01DX009 (ip), vehicle: saline): 96 % of control
T/C (dose: 3.12 mg/kg/injection, schedule: Q01DX009 (ip), vehicle: saline): 185 % of control
T/C (dose: 4.12 mg/kg/injection, schedule: Q01DX009 (ip), vehicle: saline): 168 % of control
T/C (dose: 5.0 mg/kg/injection, schedule: Q01DX009 (ip), vehicle: saline): 96 % of control
T/C [1]: 154 % of control and 191 % of control and 200 % of control
T/C (dose: 8.9 mg/kg/injection, schedule: Q04DX003 (ip), vehicle: saline): 163 % of control
T/C (dose: 10.0 mg/kg/injection, schedule: Q01DX009 (ip), vehicle: saline): 94 % of control
T/C (dose: 13.5 mg/kg/injection, schedule: Q04DX003 (ip), vehicle: saline): 154 % of control and 158 % of control
T/C (dose: 20.0 mg/kg/injection, schedule: Q01DX009 (ip), vehicle: saline): 109 % of control

O=C(NC1=NN(c2ccccc2)C(=O)C1)C(Cl)c1ccccc1 (configuration not stated)
T/C [4]: 104 % of control
T/C [2]: 95 % of control
T/C [3]: 95 % of control

O=[N+]([O-])c1ccc(N2CCN(CCO)CC2)c2c1no[n+]2[O-]
T/C (dose: 15.0 mg/kg/injection, schedule: Q01DX009 (ip), vehicle: saline with Tween-80): 154 % of control
T/C (dose: 30.0 mg/kg/injection, schedule: Q01DX009 (ip), vehicle: saline with Tween-80): 161 % of control
